Experimental data reported in patent publication US20080146499A1, “Identification of the Precise Amino Acid Sequence of the Epitope Recognized by the Potent Neutralizing Human Anti-Hiv-1 Monoclonal Antibody Igg1b12” (priority 2005, published 2008).
No end group written: not given here. *: point of attachment. Biotin = O=C1N[C@H]2[C@H](CS[C@H]2CCCCC(=O)*)N1

Experiments:
[1] = tested on: N terminal peptide; details: i.p. immunizations days 1, 15, 30, 45, 60; sera day 67; compared to control mice; FIG. 13 B
Procedure: (§1) For immunogenicity studies, 4 groups of 4 BALB/c mice (16 total) were immunized intraperitoneally (i.p.) 5 times over 2 months. The first group of mice received PBS plus Freund's adjuvant in each immunization, and the second group received 10-50 kg gp120. The third and fourth groups received 10 μg biotinylated peptide (group 3 received N-term, group 4, scrambled) linked to avidin.
(§2) ELISAs to detect Ab responses in mice were carried out by coating 96 well plates with 2.5 μg/ml gp120 or 5 μg/ml biotinylated peptide overnight at 4° C. Blood was obtained by venous tail puncture, serum was obtained by collecting the supernatant of blood that had been incubated at 4° C. for one hour and centrifuged in an Eppendorf microcentrifuge (Centrifuge 5417C, Brinkmann Instruments, Ltd. Mississauga, ON) twice for 30 minutes at maximum speed. Serum was diluted at 1/50 down in doubling dilutions and incubated on plates for 2 hours at 37° C., washed, and HRP-goat anti-mouse secondary antibody (Southern Biotechnology Associates, Inc., Birmingham, Ala.) was added. ABTS substrate (Roche Diagnostics Canada, Laval, PQ) was used for detection. Plates were read at 405 nm on the Spectramax Plus.

[2] = tested on: IgG1 b12
Procedure: Antigen capture ELISA was carried out by first coating 96 well plates (NUNC, Mississauga, ON) with 2.5 μg/ml IgG1 b12 at 4° C. overnight. Plates were washed with phosphate buffered saline (PBS) 0.05% Tween 20 and blocked with PBS containing 0.17% bovine serum albumin. Plates were washed and incubated at 4° C. overnight with serially diluted biotinylated peptides (Nterm and scrambled peptides) corresponding to the amino terminal region of gp120 N-term (biotin-[sequence]), and a scrambled peptide control (biotin-[sequence]) (United Biochemical Research, Inc., Seattle, Wash.). Plates were washed and incubated at 37° C. for 45 minutes with streptavidin alkaline phosphatase (Jackson ImmunoResearch Laboratories, Inc. West Grove, Pa.) then washed again and incubated with MgCl2 diethanolamine substrate buffer plus alkaline phosphatase yellow (pNPP) (Sigma, Oakville, ON.) at room temperature. Plates were read on a Spectramax Plus (Molecular Devices, Sunnyvale, Calif.) at 405 nm.

[3] = tested on: gp120
Procedure: as §1, §2

[4] = molecular target: biotinylated N-term peptide (biotin-…) (HIV-1); test: antigen capture ELISA, plates coated with IgG1 b12, biotinylated peptide detected with streptavidin alkaline phosphatase; reference: scrambled peptide
[5] = tested on: IgG1b12 antibody; test: Synthetic gp120 peptide binding to bead-linked IgG1b12, measured by mass spectrometry; parameters: species or system human; details: synthetic peptides as starting material; FIG. 5
Procedure: The antibody was linked to cyanogen-bromide activated sepharose beads (Sigma-Aldrich, Oakville, Ontario). Epitope excision was performed to include potential conformational epitopes. The antibody-bead mixture was incubated with either MN or IIIB HIV-1 gp120 (ImmunoDiagnostics, Inc. Woburn, Mass.) or synthetic HIV-1 gp120 peptides (United Biochemical Research, Inc, Seattle, Wash., USA) for 2 hours under physiological conditions. After several washes, trypsin (Calbiochem-Novabiochem Corporation, San Diego, Calif., USA), or Glu-C (Roche Diagnostics Canada. Laval, Quebec) enzyme digests were performed. Unbound, digested material was washed away. Antibody-bound fragments protected from digestion were analyzed by mass spectrometry. Bead+antibody+peptide complex were spotted on a gold plate along with DHB matrix (Sigma-Aldrich, Oakville, Ontario) (3,4). The sample was analyzed on the prototypic QqTOF mass spectrometer by matrix-assisted laser desorption/ionization.
Epitope mapping experiments were performed using synthetic peptides. One peptide, the “N-term” (amino terminus) peptide was tested for it's binding to IgG1b12. The N-term sequence is as follows: [sequence]. A second peptide covered the CD4 binding site, including the isoleucine (I) residue.

Substance: Biotin-LWVTVYYGVPVWKEATTTLFCASDAK [Nterm peptide]
- serum antibodies binding N-terminal peptide [1]: contains antibodies capable of binding both whole gp120 and N-terminal peptide
- binding to IgG1 b12 relative to the scrambled peptide ([2]; antigen capture ELISA): 4 times
- peptide binding to IgG1 b12 ([2]; plates coated with 2.5 μg/ml IgG1 b12, serially diluted biotinylated peptide, FIG. 11): bound IgG1 b12, and this binding was dose dependant
- immunogenicity in the mouse model ([3]; BALB/c mice, biotinylated peptide linked to avidin, i.p.): immunogenic
- serum antibodies binding whole gp120 ([3]; i.p. immunizations days 1, 15, 30, 45, 60, sera day 67, compared to control mice, FIG. 13 A): contains antibodies capable of binding both whole gp120 and N-terminal peptide

Substance: IgG1b12 human monoclonal antibody
- fold binding against the scrambled peptide [4]: 4 times

Substance: KLWVTVYYGVPVWKEATTTLFCASDAKAYDTE [amino terminus]
- recognition of synthetic peptide by IgG1b12 [5]: specifically recognizes
